Reference: patent US20180042918A1, “RESPIRATORY INFECTION TREATING AGENT” (KYORIN PHARMACEUTICAL CO., LTD., priority 2015, published 2018)
≈ marks a conversion by molar mass, not a printed value. Marks after values point to notes of the source that are not given here.

Key:
[1] = Concentration in tissue (rat, oral administration), radioactivity; type: in vivo; details: SD rat, single oral 10.83 mg/kg; for RADIOACTIVITY CONCENTRATION IN TISSUE, LUNG / RADIOACTIVITY CONCENTRATION IN TISSUE, PLASMA: fasting
Protocol: The compound C (10.83 mg/kg) (solvent: water) was single orally administrated to a SD rat under fasting. 1, 6, and 24 hours after the administration, the lung tissue and the plasma were collected. The lung tissue was dried and treated by a sample oxidizer system (Sample Oxidizer: Model 307, PerkinElmer Inc., glass vial: 20 mL, Wheaton Industries, carbon dioxide absorbent: Carbo-Sorb 8 mL, PerkinElmer Inc., scintillation cocktail: Permafluor 12 mL, PerkinElmer Inc.), and the radioactivity concentration was measured. The plasma was fractionated in a midi-vial (8 mL, PerkinElmer Inc.), 6 mL of scintillation cocktail (Ultima Gold) was added, and the radioactivity concentration was measured. The radioactivity concentration was measured using a liquid scintillation counter (Tri-Carb 2500TR or 2700TR, PerkinElmer Inc.) (average value, n=3).

[2] = male rat, 0.5 hours after single oral administration; cited from earlier work
[3] = target: Topoisomerase IV (S. pneumoniae IID553) (Streptococcus pneumoniae serotype 4, UniProt P72525+Q59961); assay: Enzyme inhibitory activity, decatenation of kinetoplast DNA
[4] = target: Topoisomerase IV (S. aureus) (Staphylococcus aureus, UniProt P0C1S7+P0C1U9); assay: as above; type: biochemical; details: S. aureus enzyme; read-out: IC50 VALUE, Topoisomerase IV (converted)
Protocol: (§1) Agents Chemother. 45: 3544-3547 (2001). […] The measurement was performed in the same manner as in Test Example 3. Similarly, the inhibitory activities of ciproxacin, levofloxacin, and garenoxacin were measured. The results were compared.

[5] = target: QUINOLONE RESISTANT Topoisomerase IV (S. aureus) (Staphylococcus aureus, UniProt P0C1U9); assay: as above; type: biochemical; details: read-out: IC50 VALUE, QUINOLONE RESISTANT Topoisomerase IV (converted)
Protocol: as §1

[6] = target: DNA gyrase derived from S. pneumoniae IID553 (Streptococcus pneumoniae serotype 4, UniProt P0A4L9+P72524); assay: Enzyme inhibitory activity, supercoiling of relaxed pBR322
[7] = test system: E. coli ATCC25922; assay: microbe, parasite or virus in culture; type: cell-based; details: Escherichia coli
[8] = test system: S. aureus MS5935 3rd; assay: microbe, parasite or virus in culture; type: cell-based; details: Staphylococcus aureus, MS59353RD
[9] = test system: S. aureus MS5935; assay: Antibacterial activity against quinolone-resistant strain in vitro, CLSI dilution; type: cell-based; details: Staphylococcus aureus; S. aureus MS5935, PARENT STRAIN, gyrA None, grlA None
[10] = test system: S. pneumoniae SF9863; assay: microbe, parasite or virus in culture; type: cell-based; details: Streptococcus pneumoniae
[11] = target: DNA gyrase derived from S. aureus (Staphylococcus aureus, UniProt P0A0K8+P20831); assay: Enzyme inhibitory activity, supercoiling of relaxed pBR322; type: biochemical; details: S. aureus enzyme; average of three or average ± SD; read-out: IC50 VALUE, DNA gyrase (converted)
Protocol: as §1

[12] = target: QUINOLONE RESISTANT DNA gyrase (quinolone-resistant S. aureus) (Staphylococcus aureus, UniProt P20831); assay: as above; type: biochemical; details: average of three or average ± SD, read-out: IC50 VALUE, QUINOLONE RESISTANT DNA gyrase (converted)
Protocol: as §1

[13] = test system: S. aureus MS5935 2nd; assay: microbe, parasite or virus in culture; type: cell-based; details: Staphylococcus aureus, MS59352ND
[14] = consecutive administration, daily dose of 500 mg; cited from earlier work
[15] = test system: S. aureus MS5935 1st; assay: microbe, parasite or virus in culture; type: cell-based; details: Staphylococcus aureus, MS59351ST
[16] = test system: S. aureus MS5935 4th; assay: microbe, parasite or virus in culture; type: cell-based; details: Staphylococcus aureus, MS59354TH
[17] = test system: S. aureus ATCC29213; assay: MIC of strain used for resistance frequency test; type: cell-based; details: Staphylococcus aureus, ATCC29213
[18] = test system: S. aureus MS5935 gyrA mutant; assay: microbe, parasite or virus in culture; type: cell-based; details: Staphylococcus aureus
[19] = test system: S. pneumoniae CF9842; assay: microbe, parasite or virus in culture; type: cell-based; details: Streptococcus pneumoniae
[20] = test system: PCG-LOW SENSITIVE S. pneumoniae (22 STRAINS); assay: Antibacterial activity against clinically isolated strains, MIC90; type: cell-based; details: Streptococcus pneumoniae, 22 clinically isolated strains
Protocol: (§2) The antibacterial activities in vitro of the compound D, garenoxacin, and levofloxacin against each clinically isolated strain of Streptococcus pneumoniae, Moraxella catarrhalis, and Haemophilus influenzae were measured in accordance with a CLSI microdilution method or a CLSI agar dilution method. A MIC90 value was the minimum concentration in which the growth of 90% strain of all the measured strains was inhibited.

[21] = test system: PSSP (26 STRAINS); assay: as above; type: cell-based; details: Streptococcus pneumoniae, 26 clinically isolated strains
Protocol: as §2

[22] = test system: M. catarrhalis (26 STRAINS); assay: as above; type: cell-based; details: Moraxella catarrhalis, 26 clinically isolated strains
Protocol: as §2

[23] = test system: H. influenzaes (26 STRAINS); assay: as above; type: cell-based; details: Haemophilus influenzae, 26 clinically isolated strains
Protocol: as §2

[24] = test system: S. pneumoniae IID553; assay: microbe, parasite or virus in culture; type: cell-based; details: Streptococcus pneumoniae
[25] = test system: S. pneumoniae GF9821; assay: microbe, parasite or virus in culture; type: cell-based; details: Streptococcus pneumoniae
[26] = test system: E. coli ATCC25922; assay: Frequency of development of resistant bacteria; type: cell-based, Escherichia coli; details: about 70 hours
Protocol: (§3) S. aureus ATCC29213 is Staphylococcus aureus, S. pneumoniae ATCC49619 is Streptococcus pneumoniae, and E. coli ATCC25922 is Escherichia coli. […]
(§4) The frequency of development of resistant bacteria was calculated by dividing the number of colonies developed on an agar medium having each drug concentration by the number of initially inoculated bacteria.

[27] = test system: S. pneumoniae SN9981; assay: microbe, parasite or virus in culture; type: cell-based; details: Streptococcus pneumoniae
[28] = test system: S. aureus ATCC29213; assay: Frequency of development of resistant bacteria; type: cell-based, Staphylococcus aureus; details: about 70 hours
Protocol: as §3, §4

[29] = test system: S. pneumoniae ATCC49619; assay: microbe, parasite or virus in culture; type: cell-based; details: Streptococcus pneumoniae
[30] = test system: S. pneumoniae NF9884; assay: microbe, parasite or virus in culture; type: cell-based; details: Streptococcus pneumoniae
[31] = test system: S. pneumoniae KY-9; assay: Antibacterial activity against Streptococcus pneumoniae in vitro, CLSI microdilution; type: cell-based; details: KY9
Protocol: The antibacterial activities in vitro of the compound D, garenoxacin, and levofloxacin against a strain in a mouse infected with Streptococcus pneumoniae (S. pneumonia KY-9) were measured in accordance with a CLSI microdilution method.

[32] = test system: S. pneumoniae ATCC49619; assay: Frequency of development of resistant bacteria; type: cell-based, Streptococcus pneumoniae; details: about 70 hours
Protocol: as §3, §4

[33] = test system: S. pneumoniae ST9941; assay: microbe, parasite or virus in culture; type: cell-based; details: Streptococcus pneumoniae

SMILES: COc1c(N2C[C@H](CNC3CC3)[C@H](F)C2)c(F)cc2c(=O)c(C(=O)O)cn(CCF)c12.Cl [Compound C, 7-[(3S,4S)-3-{(cyclopropylamino)methyl}-4-fluoropyrrolidine-1-yl]-6-fluoro-1-(2-fluoroethyl)-8-methoxy-4-oxo-1,4-dihydro[2-^14C1]quinoline-3-carboxylic acid hydrochloride]
- RADIOACTIVITY CONCENTRATION IN TISSUE, LUNG ([1]; 1 hr): 10.3 μg eq./mL or g
- RADIOACTIVITY CONCENTRATION IN TISSUE, LUNG ([1]; 6 hr): 2.44 μg eq./mL or g
- RADIOACTIVITY CONCENTRATION IN TISSUE, LUNG ([1]; 24 hr): 0.0541 μg eq./mL or g
- RADIOACTIVITY CONCENTRATION IN TISSUE, PLASMA ([1]; 1 hr): 2.79 μg eq./mL or g
- RADIOACTIVITY CONCENTRATION IN TISSUE, PLASMA ([1]; 6 hr): 0.815 μg eq./mL or g
- RADIOACTIVITY CONCENTRATION IN TISSUE, PLASMA ([1]; 24 hr): 0.0294 μg eq./mL or g
- TISSUE DISTRIBUTION RATIO, LUNG ([1]; 1 hr): 3.7
- TISSUE DISTRIBUTION RATIO, LUNG ([1]; 6 hr): 3.0
- TISSUE DISTRIBUTION RATIO, LUNG ([1]; 24 hr): 1.9

SMILES: N[C@@H]1CN(c2c(F)cc3c(=O)c(C(=O)O)cn([C@@H]4C[C@@H]4F)c3c2Cl)CC12CC2 [sitafloxacin]
- tissue distribution ratio into the lung tissue [2]: 2.7

SMILES: C[C@H]1COc2c(N3CCN(C)CC3)c(F)cc3c(=O)c(C(=O)O)cn1c23 [LVFX, levofloxacin]
- IC50 [3]: 30.4 µM
- IC50 [4]: 7.75 µM
- IC50 [5]: 238 µM
- IC50 [6]: 443 µM
- MIC [7]: 0.015 µg/mL (≈ 0.0415 µM)
- MIC [8]: 32 µg/mL (≈ 88.6 µM)
- MIC [9]: 0.125 µg/mL (≈ 0.346 µM)
- MIC [10]: 2 µg/mL (≈ 5.53 µM)
- IC50 [11]: 44.3 µM
- IC50 [12]: 3600 µM
- MIC [13]: 8 µg/mL (≈ 22.1 µM)
- AUC [14]: 49670 ng·h/mL
- Cmax [14]: 6320 ng/mL
- MIC [15]: 0.5 µg/mL (≈ 1.38 µM)
- MIC [16]: 128 µg/mL (≈ 354 µM)
- MIC [17]: 0.125 µg/mL
- MIC [18]: 0.25 µg/mL (≈ 0.692 µM)
- MIC [19]: 2 µg/mL (≈ 5.53 µM)
- MIC90 [20]: 1 µg/mL (≈ 2.77 µM)
- MIC90 [21]: 1 µg/mL (≈ 2.77 µM)
- MIC90 [22]: 0.03 µg/mL (≈ 0.083 µM)
- MIC90 [23]: 0.03 µg/mL (≈ 0.083 µM)
- MIC [24]: 1 µg/mL (≈ 2.77 µM)
- MIC [25]: 2 µg/mL (≈ 5.53 µM)
- FREQUENCY OF DEVELOPMENT OF RESISTANT BACTERIA (AVERAGE OF TWO MEASURED VALUES) ([26]; E. coli ATCC25922, 4 × MIC): 3.9 × 10^−9*
- FREQUENCY OF DEVELOPMENT OF RESISTANT BACTERIA (AVERAGE OF TWO MEASURED VALUES) ([26]; E. coli ATCC25922, 8 × MIC): <1.9 × 10^−9
- FREQUENCY OF DEVELOPMENT OF RESISTANT BACTERIA (AVERAGE OF TWO MEASURED VALUES) ([26]; E. coli ATCC25922, 16 × MIC): <1.9 × 10^−9
- MIC [27]: 16 µg/mL (≈ 44.3 µM)
- FREQUENCY OF DEVELOPMENT OF RESISTANT BACTERIA (AVERAGE OF TWO MEASURED VALUES) ([28]; S. aureus ATCC29213, 4 × MIC): <2.1 × 10^−9
- FREQUENCY OF DEVELOPMENT OF RESISTANT BACTERIA (AVERAGE OF TWO MEASURED VALUES) ([28]; S. aureus ATCC29213, 8 × MIC): <2.1 × 10^−9
- FREQUENCY OF DEVELOPMENT OF RESISTANT BACTERIA (AVERAGE OF TWO MEASURED VALUES) ([28]; S. aureus ATCC29213, 16 × MIC): <2.1 × 10^−9
- MIC [29]: 1 µg/mL (≈ 2.77 µM)
- MIC [30]: 2 µg/mL (≈ 5.53 µM)
- MIC [31]: 1 µg/mL (≈ 2.77 µM)
- FREQUENCY OF DEVELOPMENT OF RESISTANT BACTERIA (AVERAGE OF TWO MEASURED VALUES) ([32]; S. pneumoniae ATCC49619, 4 × MIC): <1.1 × 10^−8
- FREQUENCY OF DEVELOPMENT OF RESISTANT BACTERIA (AVERAGE OF TWO MEASURED VALUES) ([32]; S. pneumoniae ATCC49619, 8 × MIC): <1.1 × 10^−8
- FREQUENCY OF DEVELOPMENT OF RESISTANT BACTERIA (AVERAGE OF TWO MEASURED VALUES) ([32]; S. pneumoniae ATCC49619, 16 × MIC): <1.1 × 10^−8
- MIC [33]: 16 µg/mL (≈ 44.3 µM)
